In patent US11466044B2 (WAYNE STATE UNIVERSITY, priority 2017, dated 2022):
Converted amounts (≈) assume the structure as drawn.

Legend:
[1] = test system: MRSA; assay: MIC by broth microdilution, MRSA isolates; assay type: cell-based; details: for MIC AG038 MRSA: clinical isolate AG038; for MIC AG039 MRSA AAC(6′)-I ANT(4′)-I: clinical isolate AG039, AAC(6′)-I ANT(4′)-I; for MIC AG042 MRSA AAC(6′)-I ANT(4′)-I APH(2′): clinical isolate AG042, AAC(6′)-I ANT(4′)-I APH(2′); for MIC AG044 MRSA: clinical isolate AG044
[2] = test system: E coli wild type; assay: MIC by broth microdilution, wild type E coli; assay type: cell-based; details: for MIC pH430 WT: E. coli strain pH430, WT; for MIC AG001 E. coli WT: clinical isolate AG001, WT; for MIC AG055 E. coli WT: clinical isolate AG055, WT
[3] = test system: P aeruginosa; assay: MIC by broth microdilution, P aeruginosa isolates; assay type: cell-based, Pseudomonas aeruginosa; details: for MIC AG031 P. aer. APH(3′)-II: clinical isolate AG031, APH(3′)-II; for MIC AG032 P. aer. APH(3′)-II: clinical isolate AG032, APH(3′)-II
[4] = test system: E coli carrying specific resistance determinants; assay: MIC by broth microdilution, E coli carrying specific resistance determinants; assay type: cell-based; details: for MIC AG036 ANT(4′,4′′): E. coli strain AG036, ANT(4′,4′′); for MIC AG037 APH(3′)-III: E. coli strain AG037, APH(3′)-III; for MIC AG103 armA: E. coli strain AG103, armA; for MIC pH421 APH(3)-I: E. coli strain pH421, APH(3)-I; for MIC pH422 APH(3′)-II: E. coli strain pH422, APH(3′)-II; for MIC pH423 APH(3′)-VI: E. coli strain pH423, APH(3′)-VI; for MIC pH432 ANT(4′): E. coli strain pH432, ANT(4′); for MIC AG003 E. coli AAC(3)-II: clinical isolate AG003, AAC(3)-II
[5] = test system: wild type bacterial ribosomes; assay: in-vitro translation assay, bacterial ribosomes; assay type: biochemical; details: Mycobacterium smegmatis ribosomes; read-out: IC50 Bacterial
From the text: (§1) The antiribosomal activity of these compounds was investigated with cell-free translation assays using both wild type bacterial ribosomes and hybrid ribosomes carrying eukaryotic decoding A sites enabling the prediction of selectivity.

[6] = test system: A1555G mutant mitochondrial ribosome (human chimeric); assay: in-vitro translation assay, human chimeric ribosomes, A1555G mutant mitochondrial decoding site; assay type: biochemical; details: human mitochondrial decoding site with A1555G point mutation; read-out: IC50 Mitoch. A1555G
From the text: as §1

[7] = test system: cytosolic ribosome (human chimeric); assay type: biochemical; details: for IC50: ribosomes with a human cytosolic decoding site, read-out: IC50 Cytosolic; for Target specificity bacterial vs. Cytosolic: relative target specificity, bacterial vs. human cytosolic
From the text: as §1

[8] = test system: mitochondrial ribosome (human chimeric); assay type: biochemical; details: for IC50: ribosomes with a human mitochondrial decoding site, read-out: IC50 Mitoch.
From the text: as §1

[9] = test system: rabbit reticulocyte ribosomes; assay: in-vitro translation assay, rabbit reticulocyte ribosomes; assay type: biochemical; details: mammalian cytosolic ribosomes (rabbit)

Row | SMILES | MIC AG038 MRSA [1] [µg/mL] | MIC AG039 MRSA AAC(6′)-I ANT(4′)-I [1] [µg/mL] | MIC AG042 MRSA AAC(6′)-I ANT(4′)-I APH(2′) [1] [µg/mL] | MIC AG044 MRSA [1] [µg/mL] | MIC pH430 WT [2] | MIC AG001 E. coli WT [2] [µg/mL] | MIC AG055 E. coli WT [2] [µg/mL] | MIC AG031 P. aer. APH(3′)-II [3] [µg/mL] | MIC AG032 P. aer. APH(3′)-II [3] [µg/mL] | MIC AG036 ANT(4′,4′′) [4] [µg/mL] | MIC AG037 APH(3′)-III [4] [µg/mL] | MIC AG103 armA [4] [µg/mL] | MIC pH421 APH(3)-I [4] [μg/ml] | MIC pH422 APH(3′)-II [4] [μg/ml] | MIC AG003 E. coli AAC(3)-II [4] [µg/mL] | IC50 [5] [µM] | IC50 [6] [µM] | IC50 [7] [µM] | IC50 [8] [µM] | IC50 [9] [µM] | other results
1 | CCCC(O)C1OC(OC2C(N)CC(N)C(O)C2OC2OC(CO)C(OC3OC(CN)C(O)C(O)C3N)C2O)C(N)C(O)C1O (stereo not shown) [DC143] | 32 to 64 | >64 | >64 | 16 (≈ 24.3 µM) | 4 μg/ml | 32 (≈ 48.7 µM) | 32 (≈ 48.7 µM) | >64 | >64 | 64 (≈ 97.3 µM) | >128 | 16 to 32 | >128 | >128 | 32 (≈ 48.7 µM) | 0.16 | 93 | 259 | 328 | 66 | MIC pH423 APH(3′)-VI [4]: 32-64 μg/ml; MIC pH432 ANT(4′) [4]: 4 μg/ml
2 | CC1CC(N)C2OC(OC3C(N)CC(N)C(O)C3OC3OC(CO)C(OC4OC(CN)C(O)C(O)C4N)C3O)C(N)C(O)C2O1 (stereo not shown) [DC150] | 128 (≈ 196 µM) | 128 (≈ 196 µM) | 128 (≈ 196 µM) | 128 (≈ 196 µM) | 64-128 μg/ml | >128 | >128 | >128 | >128 |  |  |  |  |  | >128 | 0.48 | 2.3 | 12 | 4.1 | 13 | Target specificity bacterial vs. Cytosolic [7]: low; Target specificity bacterial vs. Mitochondrial ([8]; relative target specificity, bacterial vs. human mitochondrial): low
3 | NCC1OC(OC2C(CNC=O)OC(OC3C(O)C(N)CC(N)C3OC3OC(CO)C(O)CC3N)C2O)C(N)C(O)C1O (stereo not shown) [DC153] | 4 (≈ 6.38 µM) | >128 | >128 | 4 (≈ 6.38 µM) |  | 4 (≈ 6.38 µM) | 2 to 4 | 32 to 64 | 32 (≈ 51.1 µM) |  |  |  |  |  | 4 (≈ 6.38 µM) | 0.12 | 39 | 132 | 144 | 57 | 
4 | CC(O)C1OC(OC2C(N)CC(N)C(O)C2OC2OC(CO)C(OC3OC(CN)C(O)C(O)C3N)C2O)C(N)C(O)C1O (stereo not shown) [DC156] | 4 to 8 | >128 | >128 | 2 to 4 | 1 μg/ml | 4 to 8 | 4 (≈ 6.35 µM) | >32 | >32 | 32 to 64 | >32 | 1 (≈ 1.59 µM) | >32 | >32 | 4 (≈ 6.35 µM) | 0.02 | 8.4 | 2.6 | 185 | 5.4 | MIC pH414 AAC(6′)-I ([4]; E. coli strain pH414, AAC(6′)-I): 1 μg/ml; MIC pH415 AAC(6′)-II ([4]; E. coli strain pH415, AAC(6′)-II): 1 μg/ml; MIC pH423 APH(3′)-VI [4]: >32 μg/ml; MIC pH432 ANT(4′) [4]: 1 μg/ml; Target specificity bacterial vs. Cytosolic [7]: low
5 | CC(C)(O)[C@H]1O[C@H](O[C@H]2[C@H](O[C@@H]3O[C@H](CO)[C@@H](O[C@H]4O[C@@H](CN)[C@@H](O)[C@H](O)[C@H]4N)[C@H]3O)[C@@H](O)[C@H](N)C[C@@H]2N)[C@H](N)[C@@H](O)[C@@H]1O [DC159] | 8 to 16 | >128 | >128 | 4 to 8 | 1-2 μg/ml | 8 (≈ 12.4 µM) | 8 (≈ 12.4 µM) | >128 | >128 | 16 to 32 | >64 | 4 to 8 | >64 | >64 | 8 (≈ 12.4 µM) | 0.04 | 87 | 30 | 211 | 15 | MIC pH423 APH(3′)-VI [4]: 8 μg/ml; MIC pH432 ANT(4′) [4]: 2 μg/ml
